Results: US9481669B2, “Pladienolide pyridine compounds and methods of use” (Eisai R&D Management Co., Ltd., priority 2014, dated 2016)

How the values were obtained:
[1] = system: Nalm-6 SF3B1^K700E isogenic cells (human pre B-cell line) xenograft; test: Nalm-6 SF3B1^K700E mouse xenograft efficacy model; type: in vivo, CB17-SCID mice; details: orally dosed daily for 14 days (QD×14 PO)
Description: The efficacy of Compound 2 was tested in a mouse xenograft model. Nalm-6 SF3B1^K700E isogenic cells (human pre B-cell line, 10×10^6 cells) were subcutaneously implanted into the flank of female CB17-SCID mice. Mice were treated with Compound 2 (10% ethanol, 5% TWEEN-80, 85% saline) or vehicle control. The animals were orally dosed daily for 14 days (QD×14 PO) at the amounts indicated in FIG. 2 and were monitored until they reached either of the following endpoints: 1) excessive tumor volume measured three times a week (tumor volume calculated by using the ellipsoid formula: (length×width^2)/2); or 2) development of any health problems such as paralysis or excessive body weight loss. All animal studies were carried out according to the H3 Biomedicine Guide for the Care and Use of Laboratory Animals.
The efficacy of Compound 1 was tested in a mouse xenograft model. […] The animals were orally dosed daily for 14 days (QD×14 PO) with 7.5 mg/kg or 10 mg/kg Compound 1 or vehicle and were monitored until they reached either of the following endpoints: 1) excessive tumor volume measured three times a week (tumor volume calculated by using the ellipsoid formula: (length×width^2)/2); or 2) development of any health problems such as paralysis or excessive body weight loss. […]

[2] = system: Panc 05.04 cancer cells (SF3B1^MUT) vs BXPC3, HPAFII, PANC0403, PANC1005, CFPAC1 and MIAPACA2; test: Cellular viability assay, mutant vs wild-type SF3B1 pancreatic cancer cell lines; type: cell-based; details: 72 hours at 37° C., 384-well plate
Description: To assess the viability of Panc 05.04 cancer cells (SF3B1^MUT) (Q699H and K700E mutations in SF3B1) in the presence of Compound 2, cells were seeded at 750 cells per well in a 384-well plate and treated with Compound 2 at the concentrations indicated in FIG. 4 for 72 hours at 37° C. The relative number of viable or apoptotic cells were measured by luminescence using CELLTITER-GLO® luminescent Cell Viability Assay (Promega).

[3] = system: alternative splicing in Nalm-6 isogenic cells; test: Alternative splicing modulation (nCounter Nanostring analysis); type: cell-based, human; details: 10×GI50 for 6 hours
Description: The “+” and “−” indicate positive or negative values, respectively, in the shade key, which indicates the varying levels of expression of the different splice junctions.
The modulation of alternative splicing for E7107 and Compound 2 was determined using the nCounter® analysis system (NanoString Techologies, Inc., Seattle, Wash.). Nalm-6 isogenic cells were treated with Compound 2 or E7107 (obtained from Eisai, Inc.) at 10×GI50 for 6 hours. RNA was isolated using RiboPure™ RNA purification kit (Ambion®) and used for analysis. The RNA was retrotranscribed according to the instructions of the SuperScript® VILO™ cDNA synthesis kit (Invitrogen™) and 0.04 μl of cDNA was used for qPCR.

Row | SMILES | efficacy / tumor growth in xenograft mouse model [1] | differential cellular lethality, mutant vs wild-type SF3B1 pancreatic cancer cell lines [2] | splicing modulation profile [3]
1 | C/C(=C\C=C\[C@@H](C)c1ccccn1)[C@H]1OC(=O)C[C@H](O)CC[C@@](C)(O)[C@@H](OC(=O)N2CCN(C3CCCCCC3)CC2)/C=C/[C@@H]1C [Compound 1, (2S,3S,6S,7R,10R,E)-7,10-dihydroxy-3,7-dimethyl-12-oxo-2-((R,2E,4E)-6-(pyridin-2-yl)hepta-2,4-dien-2-yl)oxacyclododec-4-en-6-yl 4-cycloheptylpiperazine-1-carboxylate] | efficacious when administered via the oral route and reduced tumor growth |  | 
2 | C/C(=C\C=C\[C@@H](C)c1ccccn1)[C@H]1OC(=O)C[C@H](O)CC[C@@](C)(O)[C@@H](OC(=O)N2CCN(C)CC2)/C=C/[C@@H]1C [Compound 2, (2S,3 S,6S,7R,10R,E)-7,10-dihydroxy-3,7-dimethyl-12-oxo-2-((R,2E,4E)-6-(pyridin-2-yl)hepta-2,4-dien-2-yl)oxacyclododec-4-en-6-yl 4-methylpiperazine-1-carboxylate] | efficacious when administered via the oral route and reduced tumor growth | differential cellular lethality in the mutant SF3B1 pancreatic cancer cell line over wild-type SF3B1 pancreatic cancer cell lines | distinct from the profile of E7107
